Test results as given in publication PMC4492579, “Potent and Selective Triazole-Based Inhibitors of the Hypoxia-Inducible Factor Prolyl-Hydroxylases with Activity in the Murine Brain” (PLoS ONE, 2015).
Where a name gives a salt, the structure may show the parent alone.

Experiments:
JMJD2C (KDM4C) = molecular target: T1, JMJD2C (KDM4C) (Homo sapiens, UniProt Q9H3R0); test: KDM AlphaScreen assay, JMJD2C
T1 sequence (Q9H3R0 1-1056): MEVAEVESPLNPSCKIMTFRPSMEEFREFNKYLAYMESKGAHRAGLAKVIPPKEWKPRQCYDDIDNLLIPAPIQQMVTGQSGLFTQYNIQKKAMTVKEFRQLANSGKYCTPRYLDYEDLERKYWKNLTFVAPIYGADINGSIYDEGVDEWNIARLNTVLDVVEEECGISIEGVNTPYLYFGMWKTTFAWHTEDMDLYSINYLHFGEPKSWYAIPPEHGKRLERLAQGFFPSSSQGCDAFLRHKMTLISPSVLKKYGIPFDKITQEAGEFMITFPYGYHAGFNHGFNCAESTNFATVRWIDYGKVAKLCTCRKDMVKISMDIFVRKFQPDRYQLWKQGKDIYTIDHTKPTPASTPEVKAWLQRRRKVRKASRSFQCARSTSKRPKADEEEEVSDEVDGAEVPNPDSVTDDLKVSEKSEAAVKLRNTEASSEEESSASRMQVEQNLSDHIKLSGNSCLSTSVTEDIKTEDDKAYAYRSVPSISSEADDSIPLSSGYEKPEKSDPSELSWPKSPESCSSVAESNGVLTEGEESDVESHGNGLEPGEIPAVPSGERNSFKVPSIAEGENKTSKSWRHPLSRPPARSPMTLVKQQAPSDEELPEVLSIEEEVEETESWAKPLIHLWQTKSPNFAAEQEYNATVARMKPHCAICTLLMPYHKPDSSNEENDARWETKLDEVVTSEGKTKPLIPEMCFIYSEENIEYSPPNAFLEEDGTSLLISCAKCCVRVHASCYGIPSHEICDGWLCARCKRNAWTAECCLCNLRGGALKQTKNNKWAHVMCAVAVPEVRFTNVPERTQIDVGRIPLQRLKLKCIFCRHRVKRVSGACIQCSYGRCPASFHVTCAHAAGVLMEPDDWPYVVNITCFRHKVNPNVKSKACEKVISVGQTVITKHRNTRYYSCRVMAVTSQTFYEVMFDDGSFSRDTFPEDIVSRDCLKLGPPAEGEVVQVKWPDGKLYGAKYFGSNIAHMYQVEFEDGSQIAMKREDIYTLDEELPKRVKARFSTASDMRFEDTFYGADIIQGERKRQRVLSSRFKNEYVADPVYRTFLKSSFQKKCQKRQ
Description: Inhibition assays for PHD2 (AlphaScreen) [9], the KDMs (AlphaScreen) [17], BBOX [18] and FTO [19] were carried out as previously described. N-Terminally biotinylated 19-residue human HIF1α CODD peptide ([sequence]) used in the PHD2 inhibition assays was from GL Biochem (Shanghai). IC50 values were calculated using nonlinear regression with normalized dose-response fit using GraphPad Prism 5.

JMJD2A (KDM4A) = molecular target: T2, JMJD2A (KDM4A) (Homo sapiens, UniProt O75164); design: method as in PMID 26682036; settings: cited from earlier work
T2 sequence (O75164 1-1064): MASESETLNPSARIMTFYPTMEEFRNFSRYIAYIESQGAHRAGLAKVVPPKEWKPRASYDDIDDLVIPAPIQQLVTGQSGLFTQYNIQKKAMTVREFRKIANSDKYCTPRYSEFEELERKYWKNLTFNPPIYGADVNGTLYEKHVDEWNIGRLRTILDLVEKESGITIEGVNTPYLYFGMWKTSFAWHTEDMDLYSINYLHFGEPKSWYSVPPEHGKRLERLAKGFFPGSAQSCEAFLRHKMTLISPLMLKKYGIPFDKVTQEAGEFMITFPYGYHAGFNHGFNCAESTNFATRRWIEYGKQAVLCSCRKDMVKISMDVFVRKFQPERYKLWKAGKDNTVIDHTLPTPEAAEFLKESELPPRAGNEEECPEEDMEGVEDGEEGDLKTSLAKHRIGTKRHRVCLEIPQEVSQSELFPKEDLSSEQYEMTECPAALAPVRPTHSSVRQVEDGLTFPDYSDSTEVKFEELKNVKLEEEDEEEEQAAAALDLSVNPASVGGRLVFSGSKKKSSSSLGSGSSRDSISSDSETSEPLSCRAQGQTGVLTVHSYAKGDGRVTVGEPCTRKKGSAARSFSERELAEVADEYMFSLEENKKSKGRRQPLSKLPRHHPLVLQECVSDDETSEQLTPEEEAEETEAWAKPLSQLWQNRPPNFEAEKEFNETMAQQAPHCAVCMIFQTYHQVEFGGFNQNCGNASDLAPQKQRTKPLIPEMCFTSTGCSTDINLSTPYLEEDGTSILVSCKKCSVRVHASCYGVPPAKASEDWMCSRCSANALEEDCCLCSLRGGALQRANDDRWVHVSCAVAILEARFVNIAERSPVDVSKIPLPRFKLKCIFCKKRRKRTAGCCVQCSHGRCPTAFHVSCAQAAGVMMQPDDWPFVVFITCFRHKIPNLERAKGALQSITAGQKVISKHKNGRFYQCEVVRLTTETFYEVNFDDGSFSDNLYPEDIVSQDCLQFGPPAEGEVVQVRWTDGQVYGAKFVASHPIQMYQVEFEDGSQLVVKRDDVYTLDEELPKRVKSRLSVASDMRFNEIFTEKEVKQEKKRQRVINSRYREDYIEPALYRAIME

JMJD2E (KDM4E) = molecular target: T3, JMJD2E (KDM4E) (Homo sapiens, UniProt B2RXH2); design: method as in PMID 26682036; settings: cited from earlier work
T3 sequence (B2RXH2 1-506): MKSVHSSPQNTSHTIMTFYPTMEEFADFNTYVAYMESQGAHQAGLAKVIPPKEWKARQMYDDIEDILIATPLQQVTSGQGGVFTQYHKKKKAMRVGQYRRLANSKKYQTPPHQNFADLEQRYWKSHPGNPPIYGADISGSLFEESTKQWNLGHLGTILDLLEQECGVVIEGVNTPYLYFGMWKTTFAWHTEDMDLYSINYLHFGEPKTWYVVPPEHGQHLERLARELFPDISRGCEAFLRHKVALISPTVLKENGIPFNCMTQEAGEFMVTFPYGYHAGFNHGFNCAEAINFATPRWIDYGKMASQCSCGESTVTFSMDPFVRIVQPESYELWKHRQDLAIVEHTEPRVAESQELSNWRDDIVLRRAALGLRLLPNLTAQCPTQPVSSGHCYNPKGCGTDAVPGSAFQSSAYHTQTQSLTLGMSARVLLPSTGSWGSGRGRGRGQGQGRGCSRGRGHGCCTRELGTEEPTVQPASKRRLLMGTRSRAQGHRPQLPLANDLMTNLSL

Row | SMILES | IC50 (JMJD2C (KDM4C)) [µM] | IC50 (JMJD2A (KDM4A)) [µM] | IC50 (JMJD2E (KDM4E)) [µM]
1 | CC(C)(C)OC(=O)c1ccc(-n2[nH]cc(-n3ccnn3)c2=O)nc1 [IOX4, t-Butyl 6-(5-oxo-4-(1H-1,2,3-triazol-1-yl)-2,5-dihydro-1H-pyrazol-1-yl)nicotinate] | > 20 | – | –
2 | O=C(O)CNC(=O)c1c(O)c2ccccc2n(Cc2ccccc2)c1=O [IOX2] | – | 100 | > 100
3 | O=C(O)c1ccc(-n2[nH]cc(-n3ccnn3)c2=O)nc1 [compound 1, 6-(5-oxo-4-(1H-1,2,3-triazol-1-yl)-2,5-dihydro-1H-pyrazol-1-yl)pyridine-3-carbocylic acid hydrochloride] | > 20 | – | –
